Results taken from ChEMBL document CHEMBL1158983, “Toxins Produced by the Dogwood Anthracnose Fungus Discula sp” (1991).
The source made the active and inactive calls. No cut-off for these calls is given here.

Tests used:
Type in all cases: functional
Cornus florida [1] = assay: Phytotoxicity against Dogwood NCPV 102 assessed as leaf necrotic lesions at 50 ug by detached leaf spot method
[2] = tested on: Pectobacterium carotovorum; assay: Antimicrobial activity against Erwinia carotovora at 500 ug/disk; settings: for zone of inhibition at 500 µg/disc: read-out: IZ
Sorghum = assay: Phytotoxicity against Sorghum assessed as leaf necrotic lesions at 100 ug by detached leaf spot method
Nasturtium officinale = assay: Phytotoxicity against watercress assessed as leaf necrotic lesions at 100 ug by detached leaf spot method
Ambrosia artemisiifolia = assay: Phytotoxicity against ragweed assessed as leaf necrotic lesions at 100 ug by detached leaf spot method
Chenopodium album = assay: Phytotoxicity against Lamb's quarters assessed as leaf necrotic lesions at 100 ug by detached leaf spot method
Penicillium chrysogenum = assay: Antimicrobial activity against Penicillium notatum at 500 ug/disk; settings: for zone of inhibition at 500 µg/disc: read-out: IZ
Senna obtusifolia = assay: Phytotoxicity against Sicklepod assessed as leaf necrotic lesions at 100 ug by detached leaf spot method
Datura stramonium = assay: Phytotoxicity against Jimsonweed assessed as leaf necrotic lesions at 100 ug by detached leaf spot method
[3] = tested on: Agrobacterium tumefaciens; assay: Antimicrobial activity against Agrobacterium tumefaciens at 500 ug/disk; settings: for zone of inhibition at 500 µg/disc: read-out: IZ
Aspergillus flavus = assay: Antimicrobial activity against Aspergillus flavus at 500 ug/disk; settings: for zone of inhibition at 500 µg/disc: read-out: IZ
Cornus florida [4] = assay: Phytotoxicity against Dogwood NCPV 100 assessed as leaf necrotic lesions at 50 ug by detached leaf spot method
[5] = tested on: Curtobacterium flaccumfaciens; assay: Antimicrobial activity against Corynebacterium flaccumfaciens at 500 ug/disk; settings: for zone of inhibition at 500 µg/disc: read-out: IZ
Cornus florida [6] = assay: Phytotoxicity against Dogwood NCPV 101 assessed as leaf necrotic lesions at 50 ug by detached leaf spot method
Sorghum halepense = assay: Phytotoxicity against Johnsongrass assessed as leaf necrotic lesions at 100 ug by detached leaf spot method
Convolvulaceae = assay: Phytotoxicity against Morning glory assessed as leaf necrotic lesions at 100 ug by detached leaf spot method
Sida spinosa = assay: Phytotoxicity against Prickly sida assessed as leaf necrotic lesions at 100 ug by detached leaf spot method
Colletotrichum acutatum = assay: Antimicrobial activity against Colletotrichum acutatum at 500 ug/disk; settings: for zone of inhibition at 500 µg/disc: read-out: IZ
Escherichia coli = assay: Antimicrobial activity against Escherichia coli at 500 ug/disk; settings: for zone of inhibition at 500 µg/disc: read-out: IZ

| SMILES | Activity (Cornus florida [1]) | zone of inhibition at 500 µg/disc [2] | Activity (Sorghum) | Activity (Nasturtium officinale) | Activity (Ambrosia artemisiifolia) | Activity (Chenopodium album) | zone of inhibition at 500 µg/disc (Penicillium chrysogenum) | Activity (Senna obtusifolia) | Activity (Datura stramonium) | zone of inhibition at 500 µg/disc [3] | zone of inhibition at 500 µg/disc (Aspergillus flavus) | Activity (Cornus florida [4]) | zone of inhibition at 500 µg/disc [5] | Activity (Cornus florida [6]) | Activity (Sorghum halepense) | Activity (Convolvulaceae) | Activity (Sida spinosa) | zone of inhibition at 500 µg/disc (Colletotrichum acutatum) | zone of inhibition at 500 µg/disc (Escherichia coli) | Activity [2] | further results |
| --- | --- | --- | --- | --- | --- | --- | --- | --- | --- | --- | --- | --- | --- | --- | --- | --- | --- | --- | --- | --- | --- |
| O=C(O)c1ccc(O)cc1 [PARABEN] | 5 mm2 | 0 mm | 19 mm2 | 17 mm2 | 15 mm2 | 9 mm2 | 0 mm | 10 mm2 | 12 mm2 | 0 mm | 0 mm | 11 mm2 | 9 mm | 10 mm2 | 22 mm2 | 15 mm2 | 31 mm2 | 0 mm | 5 mm |  |  |
| CC(=O)Oc1cc(O)c2c(c1)C[C@H](C)OC2=O | 1 mm2 |  | 24 mm2 | 31 mm2 | 30 mm2 | 6 mm2 |  | 14 mm2 | 18 mm2 |  |  | 2 mm2 |  | 1 mm2 | 24 mm2 | 13 mm2 | 34 mm2 |  |  | inactive | Activity (Penicillium chrysogenum): inactive; Activity [3]: inactive; Activity (Aspergillus flavus): inactive; Activity [5]: inactive; Activity (Colletotrichum acutatum): inactive; Activity (Escherichia coli): inactive |
| CC(=O)Oc1ccc(C(=O)O)cc1CC=C(C)C | 42 mm2 | 4 mm | 73 mm2 | 48 mm2 | 38 mm2 | 8 mm2 | 5 mm | 18 mm2 | 22 mm2 | 6 mm | 5 mm | 51 mm2 | 10 mm | 23 mm2 | 51 mm2 | 19 mm2 | 36 mm2 | 6 mm | 0 mm |  |  |
| O=C1CC[C@@H](O)c2cccc(O)c21 | 13 mm2 |  | 7 mm2 | 14 mm2 | 12 mm2 | 5 mm2 |  | 2 mm2 | 6 mm2 |  |  | 12 mm2 |  | 5 mm2 | 13 mm2 | 4 mm2 | 18 mm2 |  |  | inactive | Activity (Penicillium chrysogenum): inactive; Activity [3]: inactive; Activity (Aspergillus flavus): inactive; Activity [5]: inactive; Activity (Colletotrichum acutatum): inactive; Activity (Escherichia coli): inactive |
| CC(C)=CCc1cc(C(=O)O)ccc1O | 24 mm2 | 5 mm | 75 mm2 | 56 mm2 | 36 mm2 | 23 mm2 | 6 mm | 22 mm2 | 31 mm2 | 8 mm | 4 mm | 38 mm2 | 5 mm | 14 mm2 | 46 mm2 | 28 mm2 | 42 mm2 | 8 mm | 0 mm |  |  |
| C[C@H]1Cc2cc(O)cc(O)c2C(=O)O1 | 10 mm2 |  | 40 mm2 | 36 mm2 | 60 mm2 | 14 mm2 |  | 20 mm2 | 24 mm2 |  |  | 7 mm2 |  | 14 mm2 | 34 mm2 | 24 mm2 | 40 mm2 |  |  | inactive | Activity (Penicillium chrysogenum): inactive; Activity [3]: inactive; Activity (Aspergillus flavus): inactive; Activity [5]: inactive; Activity (Colletotrichum acutatum): inactive; Activity (Escherichia coli): inactive |
